Reference: publication PMC10734620, “A blinded in vitro analysis of the intrinsic immunogenicity of hepatotoxic drugs: implications for preclinical risk assessment” (Toxicological Sciences, 2023)
Read-outs that look alike come from different tables or passages of the source.

Key:
PBMC = experiment: Inhibition of mitogen-induced (PHA-P) PBMC proliferation; format: cell-based, human
Protocol: Test compounds were provided by GSK to Liverpool as blinded dry powders with a given volume of dimethyl sulfoxide to prepare stock concentrations of 50 mM. Stock concentrations were aliquoted and stored at −80°C until required for experiments. A fresh aliquot was utilized for every experiment. PBMC from 3 healthy donors were used to determine the maximum tolerated concentration of each test compound. PBMC (0.15 × 10^6) were cultured with graded compound concentrations in U-bottomed 96-well plates for 48 h at 37°C, 5% CO2. Phytohemagglutinin (PHA-P; 10 µg/ml) was added to cells for a further 24 h followed by assessment of proliferation through the addition of [^3H]-thymidine (0.5 µCi/well) for the last 16 h. […] The IC50 value was then calculated using 4-parameter logistic curve-fitting model (GraphPad prism 7.0).
Figure 2. Toxicity profiles of training and test compounds. […] PHA-P (10 µg/ml) was added to cells for a further 24 h followed by assessment of proliferation through the addition of [^3H]-thymidine (0.5 µCi/well) for the last 16 h. […] 4-parameter logistic functions were fit to the data and IC50 values were then reported (GraphPad prism 7.0). […] LPB (Liverpool Pharmacology Biobank) represents the unique identifier for PBMC isolated from each consented healthy blood donor for drug safety research. Percentage proliferation for each compound concentration = Proliferation following drug exposure divided by proliferation after cell culture media exposure multiplied by 100.

naïve T-cells = experiment: Priming of naïve human T-cells (dendritic cell-T-cell coculture); format: cell-based; conditions: for Proliferation of primed T-cells restimulated with titrated concentrations: 3 drug concentrations (low, medium, high), 48 h; for Number of donors with naïve T-cell priming: 3 study donors; for Proliferation of primed T-cells, drug- vs medium-restimulated wells: 14 days priming, restimulation 48 h at single concentration, 48 wells, [3H]-thymidine
Protocol: CD14+ monocytes were positively selected using CD14 antibody-conjugated microbeads. This was followed by the depletion of CD25+ cells from the CD14- population and the negative selection of CD45RA+ naïve T-cells. […] Dendritic cells were generated by culturing monocytes with a cocktail of GM-CSF (800 U/ml) and IL-4 (800 U/ml) in culture media for 6 days. Both cytokines were purchased from Peprotech (New Jersey). A maturation cocktail of TNF-α (25 ng/ml) and LPS (1 µg/ml) was added for 16 h before establishing the T-cell priming culture. Dendritic cells (8 × 10^3 per well) were cultured with naïve T-cells (1 × 10^5 per well) and the test compounds in a 96-well U-bottom tissue culture plate for 14 days at 37°C, 5% CO2. Cells were then washed extensively to remove unbound drug and cultures were restimulated with test compound or medium control (48 wells) for 48 h. Subsequent experiments were performed with training compounds to investigate the dose-dependent stimulation of naïve T-cells. In these experiments, T-cells were cultured with 3 concentrations of the test compound and medium (negative control) during the restimulation step. T-cell proliferative responses were determined by addition of [^3H]-thymidine (0.5 µCi/well) for the final 16 h of the culture period. Plates were harvested and counted as described above. […] Student’s t test was performed to determine statistical significance of T-cell proliferation when comparing medium- and drug-treated cultures (*p ≤ .05; **p ≤ .005; ***p < .001).
Figure 3. Naïve T-cell priming with training compounds. CD14+ monocytes were utilized to generate dendritic cells with a cocktail of GM-CSF (800 U/ml) and IL-4 (800 U/ml) in culture media for 6 days. […] A, Nitroso sulfamethoxazole. B, Vancomycin. C, Bandrowski’s base. D, Carbamazepine. E, Piperacillin. The degree of naïve T-cell priming was determined by comparing the counts per minutes (cpm) of drug and media-treated cultures using a beta counter. Student’s t test was performed to determine statistical significance (*p ≤ .05; **p ≤ .005; ***p < .001). Each data point represents T-cells proliferation in individual well of a 96 U-bottomed plate.
Figure 4. Dose-dependent stimulation of primed T-cells with training compound. […] Primed cells were washed extensively and then restimulated with 3 drug concentrations (low, medium, and high) for 48 h followed by determination of T-cell activation by [^3H]-thymidine incorporation. Each data point represents T-cells proliferation in individual well of a 96 U-bottomed plate.
Figure 5. Naïve T-cell priming with test compounds. […] B, Dacarbazine. […] F, Iproniazid. G, Mepivacaine. H, Nevirapine. […] J, Phenoxybenzamine. Primed cells were washed extensively and then restimulated medium or drug for 48 h followed by determination of T-cell activation by [^3H]-thymidine incorporation. Each data point represents T-cells proliferation in individual well of a 96 U-bottomed plate.

T-cell clones = experiment: Generation and drug-specificity testing of T-cell clones; format: cell-based, human; conditions: for Detection of drug-responsive T-cell clones / T-cell clones responsive to drug (SI ≥ 2): 3 donors; for Detection of drug-responsive T-cell clones: SI ≥ 2; for Dose-dependent proliferation of drug-responsive T-cell clones: titrated concentrations, 48 h, EBV-transformed B-cells; for T-cell clones responsive to drug (SI ≥ 2): training compounds, maximum of 216 clones per donor; for Overall immunogenicity call in T-cell assays: priming assay and/or T-cell clones
Protocol: To establish T-cell lines, PBMC from 3 healthy HLA-typed (Table 2) donors were cultured with individual test compounds (at concentrations not associated with inhibition of mitogen-driven PBMC proliferation; see Figure 2 for individual concentrations) for 14 days. Medium was supplemented with IL-2 (50 U/ml; Peprotech, New Jersey) to maintain drug-specific T-cell expansion. T-cell clones were generated from the T-cell lines by serial dilution and repetitive mitogen stimulation ([Schnyder et al., 2000]). T-cells (0.3–3 cells/well) were cultured with irradiated allogenic PBMC (5 × 10^4/well) and PHA-P (1 µg/ml) in IL-2 containing medium. The medium was supplemented with fresh IL-2 on days 6, 9 and every 2 days thereafter. Growing cultures were expanded further with a second round of mitogen stimulation and tested for drug-specific T-cell proliferation on day 28. Cloned T-cells (5 × 10^4/well) were cultured with irradiated autologous EBV-transformed B-cells (1 × 10^4/well) and drug in duplicate wells for 48 h. Wells containing medium served as a negative control. Proliferation was measured by the addition of [^3H]-thymidine followed by scintillation counting. T-cell clones with SI ≥ 2 were considered drug-responsive and expanded using irradiated allogeneic PBMC for dose-response studies and assessment of CD4/8 phenotyping.
Proliferation was measured by the addition of [^3H]-thymidine as described above.
T-cell clones were washed with FACS buffer and CD phenotype determined using flow cytometry. Cells (10 000) were acquired using a FACSCanto II (BD Biosciences) and data analyzed by FACSDiva software.
Figure 6. Generation of training compound (nitroso sulfamethoxazole, vancomycin, and Bandrowski’s base)-specific T-cell clones. PBMC from 3 healthy donors were cultured with training compounds and supplemented with IL-2 (50 U/ml) for 14 days. T-cell clones were generated from the T-cell lines by serial dilution and repetitive mitogen stimulation. T-cells (0.3–3 cells/well) were stimulated with irradiated allogenic PBMC (5 × 10^4/well) and phytohemagglutinin (1 µg/ml). Well growing cultures were subjected to a second round of expansion then tested for drug-specific T-cell proliferation. Proliferation was measured by the addition of ^3H-thymidine followed by scintillation counting. A–C, Initial specificity test for nitroso sulfamethoxazole, vancomycin, and Bandrowski’s base clones. T-cell clones showing stimulation index, SI ≥ 2 were considered drug-responsive and expanded and used in dose-response studies. SI = Drug-induced T-cell proliferation divided by T-cell proliferation in cell culture media. […] T-cell activation was determined using [^3H]-thymidine incorporation.
Figure 7. […] PBMC from 3 healthy donors were cultured with test compounds and supplemented with IL-2 (50 U/ml) for 14 days. T-cell clones were generated from the T-cell lines by serial dilution and repetitive mitogen stimulation. T-cells (0.3–3 cells/well) were stimulated with irradiated allogenic PBMC (5 × 10^4/well) and phytohemagglutinin (1 µg/ml). Well growing cultures were subjected to a second round of expansion then tested for drug-specific T-cell proliferation. Proliferation was measured by the addition of ^3H-thymidine followed by scintillation counting. […] T-cell activation was determined using [^3H]-thymidine incorporation.

[1] = design: method as in Sakatis et al., 2012; Schofield et al., 2021; conditions: Positive = above the threshold of concern; assays not listed negative; ref Sakatis et al., 2012; Schofield et al., 2021; cited from earlier work
[2] = design: method as in FDA DILIrank datasets; conditions: ref FDA DILIrank datasets; cited from earlier work
[3] = Homo sapiens, PBMC, PBMC from 3 healthy donors, compound 48 h, then PHA-P 10 µg/ml 24 h, [3H]-thymidine, read-out: IC50, inhibition of mitogen-driven PBMC proliferation
[4] = PBMC from 3 healthy donors, compound 48 h, then PHA-P 10 µg/ml 24 h, [3H]-thymidine, read-out: IC50, inhibition of mitogen-driven PBMC proliferation

| Compound | Proliferation of primed T-cells restimulated with titrated concentrations (naïve T-cells) | Number of donors with naïve T-cell priming (naïve T-cells) | Proliferation of primed T-cells, drug- vs medium-restimulated wells (naïve T-cells) | Detection of drug-responsive T-cell clones (T-cell clones) | Dose-dependent proliferation of drug-responsive T-cell clones (T-cell clones) | T-cell clones responsive to drug (SI ≥ 2) (T-cell clones) | IC50 (PBMC; [4]) | Overall immunogenicity call in T-cell assays (T-cell clones) | other results |
| --- | --- | --- | --- | --- | --- | --- | --- | --- | --- |
| NC1=CC(=N\c2ccc(N)cc2)/C(N)=CC/1=N/c1ccc(N)cc1 [Bandrowski's base] | stimulated to proliferate in the presence of all 3 concentrations | 3 | Proliferation of primed T-cells was observed | detected from each donor | proliferate in a dose-dependent manner | 13% |  |  | IC50 (PBMC; [3]): 5 µM |
| NC(=O)N1c2ccccc2C=Cc2ccccc21 [Carbamazepine] |  | 1 | not observed | not detected |  |  | 260 µM |  | IC50 (PBMC; PBMC from 3 healthy donors, compound 48 h, then PHA-P 10 µg/ml 24 h, [3H]-thymidine, listed as carbamazepine, read-out: IC50, inhibition of mitogen-driven PBMC proliferation): ≥ 50 µM; Proliferation of primed T-cells on restimulation at highest concentration (naïve T-cells; restimulated at 200 µM): weakly significant proliferative response |
| CN(C)CCOC(c1ccccc1)c1ccccc1 [Diphenhydramine] |  |  |  |  |  |  |  | no false positives |  |
| CC[C@H]1OC(=O)[C@H](C)[C@@H](O[C@H]2C[C@@](C)(OC)[C@@H](O)[C@H](C)O2)[C@H](C)[C@@H](O[C@@H]2O[C@H](C)C[C@H](N(C)C)[C@H]2O)[C@](C)(O)C[C@@H](C)C(=O)[C@H](C)[C@@H](O)[C@]1(C)O [Erythromycin] |  |  |  |  | dose-dependent proliferative responses |  | 160 µM | potentially immunogenic | IC50 (PBMC; PBMC from 3 healthy donors, compound 48 h, then PHA-P 10 µg/ml 24 h, [3H]-thymidine, listed as erythromycin, read-out: IC50, inhibition of mitogen-driven PBMC proliferation): ≥ 50 µM; Number of drug-responsive T-cell clones (T-cell clones; donor 2): 3; T-cell clones stimulated to proliferate, donor 2 (T-cell clones; donor 2, maximum of 144 clones per donor): 2%; Detection of drug-responsive T-cell clones, other donors (T-cell clones; donors other than donor 2): not detected; CD phenotype of drug-responsive T-cell clones (T-cell clones; flow cytometry CD4/CD8): CD4+; Routine Assays that are Positive (GSK) [1]: Reactive metabolite |
| Cc1cc(NS(=O)(=O)c2ccc(N=O)cc2)no1 [Nitroso sulfamethoxazole, 4-Nitrososulfamethoxazole] | stimulated to proliferate in the presence of all 3 concentrations | 3 | Proliferation of primed T-cells was observed | detected from each donor | proliferate in a dose-dependent manner | 10.0% | 250 µM |  | IC50 (PBMC; PBMC from 3 healthy donors, compound 48 h, then PHA-P 10 µg/ml 24 h, [3H]-thymidine, listed as nitroso sulfamethoxazole, read-out: IC50, inhibition of mitogen-driven PBMC proliferation): ≥ 50 µM |
| CC(COc1ccccc1)N(CCCl)Cc1ccccc1 (centres unmarked) [Phenoxybenzamine] |  |  |  |  |  |  |  | no false positives | IC50 (PBMC; Homo sapiens, PBMC, read-out: IC50, inhibition of mitogen-driven PBMC proliferation, PBMC from 3 healthy donors, compound 48 h, then PHA-P 10 µg/ml 24 h, [3H]-thymidine): 15 µM; IC50 (PBMC; read-out: IC50, inhibition of mitogen-driven PBMC proliferation, PBMC from 3 healthy donors, compound 48 h, then PHA-P 10 µg/ml 24 h, [3H]-thymidine): ≤ 20 µM; Routine Assays that are Positive (GSK) [1]: Reactive metabolite; FDA Clinical Hepatotoxicity Concern [2]: No |
| CCN1CCN(C(=O)N[C@@H](C(=O)N[C@@H]2C(=O)N3[C@@H]2SC(C)(C)[C@@H]3C(=O)O)c2ccccc2)C(=O)C1=O [Piperacillin] | not detected |  | not observed | not detected |  |  |  |  | IC50 (PBMC; [3]): 1000 µM |
| CN[C@H](CC(C)C)C(=O)N[C@H]1C(=O)N[C@@H](CC(N)=O)C(=O)N[C@H]2C(=O)N[C@H]3C(=O)N[C@H](C(=O)N[C@H](C(=O)O)c4cc(O)cc(O)c4-c4cc3ccc4O)[C@H](O)c3ccc(c(Cl)c3)Oc3cc2cc(c3O[C@@H]2O[C@H](CO)[C@@H](O)[C@H](O)[C@H]2O[C@H]2C[C@](C)(N)[C@H](O)[C@H](C)O2)Oc2ccc(cc2Cl)[C@H]1O [Vancomycin] | stimulated to proliferate in the presence of all 3 concentrations | 3 | Proliferation of primed T-cells was observed | detected from each donor | proliferate in a dose-dependent manner | 9.7% |  |  | IC50 (PBMC; Homo sapiens, PBMC, read-out: IC50, inhibition of mitogen-driven PBMC proliferation): 2000 µM |
